Legend:
Assay in all cases: relative viability (nuclei count vs DMSO), 5 days (fraction); higher = more cells survive
NCI-H2342 = tested on: NCI-H2342
How it was run: (§1)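 Relative viability equals treated-well nuclei counts divided by vehicle-well nuclei counts. Counts came from 4× images of lung cancer cell lines grown in 1536-well plates for 5 days after pin-tool dosing on the day after seeding. Dosing used one drug alone or a fixed anchor-drug dose plus five library-drug doses (not always all listed) in √10 steps, and values are medians of duplicate plates.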

HARA = tested on: HARA
How it was run: as §1

NCI-H441 = tested on: NCI-H441
How it was run: as §1

NCI-H1650 = tested on: NCI-H1650
How it was run: as §1

201T = tested on: 201T
How it was run: as §1

NCI-H358 = tested on: NCI-H358
How it was run: as §1

BEN = tested on: BEN
How it was run: as §1

HCC-15 = tested on: HCC-15
How it was run: as §1

NCI-H23 = tested on: NCI-H23
How it was run: as §1

NCI-H1975 = tested on: NCI-H1975
How it was run: as §1

COR-L23 = tested on: COR-L23
How it was run: as §1

SK-MES-1 = tested on: SK-MES-1
How it was run: as §1

NCI-H1437 = tested on: NCI-H1437
How it was run: as §1

EKVX = tested on: EKVX
How it was run: as §1

NCI-H1666 = tested on: NCI-H1666
How it was run: as §1

NCI-H650 = tested on: NCI-H650
How it was run: as §1

SW 900 = tested on: SW 900
How it was run: as §1

NCI-H596 = tested on: NCI-H596
How it was run: as §1

A-427 = tested on: A-427
How it was run: as §1

NCI-H838 = tested on: NCI-H838
How it was run: as §1

HCC-827 = tested on: HCC-827
How it was run: as §1

For O=c1cc(N2CCOCC2)oc2c(-c3cccc4c3sc3ccccc34)cccc12 + COc1cc2c(Oc3ccc(NC(=O)C4(C(=O)Nc5ccc(F)cc5)CC4)cc3F)ccnc2cc1OCCCN1CCOCC1 [Foretinib] (partner 0.25 µM), the relative viability (NCI-H2342; first compound 0.01 µM) was 1.04, the relative viability (NCI-H2342; first compound 0.03162 µM) was 1.11 and the relative viability (NCI-H2342; first compound 0.1 µM) was 0.997. For the same compound, the relative viability (NCI-H2342; first compound 0.3162 µM) was 1.04, the relative viability (NCI-H2342; first compound 1 µM) was 1.07 and the relative viability (HARA; first compound 0.01 µM) was 0.768. It also gave a relative viability (HARA; first compound 0.03162 µM) of 0.897, a relative viability (HARA; first compound 0.1 µM) of 0.857 and a relative viability (HARA; first compound 0.3162 µM) of 0.864. For the same compound, the relative viability (HARA; first compound 1 µM) was 0.903, the relative viability (NCI-H441; first compound 0.01 µM) was 1.17 and the relative viability (NCI-H441; first compound 0.03162 µM) was 0.864. It also gave a relative viability (NCI-H441; first compound 0.1 µM) of 1.02, a relative viability (NCI-H441; first compound 0.3162 µM) of 0.992 and a relative viability (NCI-H441; first compound 1 µM) of 0.969. It also gave a relative viability (NCI-H1650; first compound 0.01 µM) of 1.09, a relative viability (NCI-H1650; first compound 0.03162 µM) of 1.09 and a relative viability (NCI-H1650; first compound 0.1 µM) of 1.04. It also gave a relative viability (NCI-H1650; first compound 0.3162 µM) of 1.21, a relative viability (NCI-H1650; first compound 1 µM) of 1.19 and a relative viability (201T; first compound 0.01 µM) of 1.1. For the same compound, the relative viability (201T; first compound 0.03162 µM) was 1.13, the relative viability (201T; first compound 0.1 µM) was 1.1 and the relative viability (201T; first compound 0.3162 µM) was 0.963. For the same compound, the relative viability (201T; first compound 1 µM) was 1.06, the relative viability (NCI-H358; first compound 0.01 µM) was 0.647 and the relative viability (NCI-H358; first compound 0.03162 µM) was 0.7. For the same compound, the relative viability (NCI-H358; first compound 0.1 µM) was 0.667, the relative viability (NCI-H358; first compound 0.3162 µM) was 0.741 and the relative viability (NCI-H358; first compound 1 µM) was 0.774. For the same compound, the relative viability (BEN; first compound 0.01 µM) was 0.548, the relative viability (BEN; first compound 0.03162 µM) was 0.861 and the relative viability (BEN; first compound 0.1 µM) was 0.57. The relative viability (BEN; first compound 0.3162 µM) was 0.701, the relative viability (BEN; first compound 1 µM) was 0.578 and the relative viability (HCC-15; first compound 0.01 µM) was 1.01. It also gave a relative viability (HCC-15; first compound 0.03162 µM) of 1.09, a relative viability (HCC-15; first compound 0.1 µM) of 1.09 and a relative viability (HCC-15; first compound 0.3162 µM) of 0.989. For the same compound, the relative viability (HCC-15; first compound 1 µM) was 0.971, the relative viability (NCI-H23; first compound 0.01 µM) was 1.02 and the relative viability (NCI-H23; first compound 0.03162 µM) was 1.01. It also gave a relative viability (NCI-H23; first compound 0.3162 µM) of 1.06, a relative viability (NCI-H23; first compound 1 µM) of 0.919 and a relative viability (NCI-H1975; first compound 0.01 µM) of 0.842. It also gave a relative viability (NCI-H1975; first compound 0.03162 µM) of 1.1, a relative viability (NCI-H1975; first compound 0.1 µM) of 1.1 and a relative viability (NCI-H1975; first compound 0.3162 µM) of 0.927. It also gave a relative viability (NCI-H1975; first compound 1 µM) of 0.936, a relative viability (COR-L23; first compound 0.01 µM) of 1.03 and a relative viability (COR-L23; first compound 0.03162 µM) of 0.996. For the same compound, the relative viability (COR-L23; first compound 0.1 µM) was 0.954, the relative viability (COR-L23; first compound 0.3162 µM) was 0.923 and the relative viability (COR-L23; first compound 1 µM) was 1.06. It also gave a relative viability (SK-MES-1; first compound 0.01 µM) of 1.13, a relative viability (SK-MES-1; first compound 0.03162 µM) of 0.771 and a relative viability (SK-MES-1; first compound 0.1 µM) of 0.847. The relative viability (SK-MES-1; first compound 0.3162 µM) was 0.968, the relative viability (SK-MES-1; first compound 1 µM) was 0.91 and the relative viability (NCI-H1437; first compound 0.01 µM) was 0.877. For the same compound, the relative viability (NCI-H1437; first compound 0.03162 µM) was 1.28, the relative viability (NCI-H1437; first compound 0.1 µM) was 1.26 and the relative viability (NCI-H1437; first compound 0.3162 µM) was 1.25. The relative viability (NCI-H1437; first compound 1 µM) was 1.23, the relative viability (EKVX; first compound 0.01 µM) was 0.973 and the relative viability (EKVX; first compound 0.03162 µM) was 1.05. For the same compound, the relative viability (EKVX; first compound 0.1 µM) was 0.818, the relative viability (EKVX; first compound 0.3162 µM) was 0.628 and the relative viability (EKVX; first compound 1 µM) was 0.59. For the same compound, the relative viability (NCI-H1666; first compound 0.01 µM) was 0.907, the relative viability (NCI-H1666; first compound 0.03162 µM) was 0.917 and the relative viability (NCI-H1666; first compound 0.1 µM) was 0.983. The relative viability (NCI-H1666; first compound 0.3162 µM) was 0.883, the relative viability (NCI-H1666; first compound 1 µM) was 0.913 and the relative viability (NCI-H650; first compound 0.03162 µM) was 1.07. It also gave a relative viability (NCI-H650; first compound 0.1 µM) of 0.918, a relative viability (NCI-H650; first compound 0.3162 µM) of 1.01 and a relative viability (NCI-H650; first compound 1 µM) of 0.992. It also gave a relative viability (SW 900; first compound 0.01 µM) of 0.859, a relative viability (SW 900; first compound 0.03162 µM) of 0.888 and a relative viability (SW 900; first compound 0.1 µM) of 0.789. The relative viability (SW 900; first compound 0.3162 µM) was 0.798, the relative viability (SW 900; first compound 1 µM) was 0.818 and the relative viability (NCI-H596; first compound 0.01 µM) was 0.838. For the same compound, the relative viability (NCI-H596; first compound 0.03162 µM) was 0.946, the relative viability (NCI-H596; first compound 0.1 µM) was 0.821 and the relative viability (NCI-H596; first compound 0.3162 µM) was 0.96. For the same compound, the relative viability (NCI-H596; first compound 1 µM) was 0.918, the relative viability (A-427; first compound 0.01 µM) was 1.04 and the relative viability (A-427; first compound 0.03162 µM) was 1.2. For the same compound, the relative viability (A-427; first compound 0.1 µM) was 0.972, the relative viability (A-427; first compound 0.3162 µM) was 1.01 and the relative viability (A-427; first compound 1 µM) was 1. It also gave a relative viability (NCI-H838; first compound 0.01 µM) of 0.987, a relative viability (NCI-H838; first compound 0.03162 µM) of 1.02 and a relative viability (NCI-H838; first compound 0.1 µM) of 1.12. The relative viability (NCI-H838; first compound 0.3162 µM) was 0.958, the relative viability (NCI-H838; first compound 1 µM) was 0.997 and the relative viability (HCC-827; first compound 0.01 µM) was 1.01. For the same compound, the relative viability (HCC-827; first compound 0.03162 µM) was 1.11, the relative viability (HCC-827; first compound 0.1 µM) was 1.03 and the relative viability (HCC-827; first compound 0.3162 µM) was 1.04. It also gave a relative viability (HCC-827; first compound 1 µM) of 1.03.

Reference: the supplement of paper PMC10307832
